Key:
[1] = tested on: h18-Ψ (RNA, rRNA, pseudouridine at 516 (E. coli numbering; residue 6 of the 30-nt model)) CUCCGUGCCAGCAGCCGCGGUAAUACGGAG; experiment: CD titration at 265 nm; details: 15 mM KCl, 4 mM MgCl2; 20 mM potassium cacodylate pH 7.0, 30 °C; 5 µM RNA (Methods print a different CD buffer, pH 7.6)
[2] = tested on: h18-U (RNA, rRNA) CUCCGUGCCAGCAGCCGCGGUAAUACGGAG; experiment: CD titration at 265 nm; details: 15 mM KCl, 4 mM MgCl2; 20 mM potassium cacodylate pH 7.0, 30 °C; 5 µM RNA (Methods print a different CD buffer, pH 7.6)

For `CN[C@@H]1[C@H](O[C@H]2[C@H](O[C@H]3[C@H](O)[C@@H](O)[C@H](N=C(N)N)[C@@H](O)[C@@H]3N=C(N)N)O[C@@H](C)[C@]2(O)C=O)O[C@@H](CO)[C@H](O)[C@H]1O`, the Kd [1] was 23 ± 3 µM and the Kd [2] was 63 ± 1 µM.

Reference: PMC10525438 (2023)
